# Results: US9782367B2, “Process for obtaining a modafinil-based pharmaceutical composition, resulting pharmaceutical composition and use thereof” (DEBREGEAS ET ASSOCIES PHARMA, priority 2012, dated 2017)
# What was measured:
# [1] = cited from earlier work
# [2] = solubility in supercritical fluid (CO2 or tetrafluoroethane); type: physicochemical; conditions: supercritical CO2, FIG. 1
# Source text: From among these supercritical fluids, mention may be made of CO2: the technology of supercritical CO2 is based on the solvent power of CO2 which may be modulated at will depending on the pressure and temperature conditions applied to it.
# A method for extraction with supercritical CO2 operates in a closed circuit. It includes pressurizing units (pumps) and a temperature-setting unit (exchangers) in order to bring CO2 above its critical point.
# The product to be treated is placed in an extractor crossed by the supercritical CO2 flow. Molecules which are soluble in supercritical CO2, therefore extractable, are not very polar compounds with a low molecular mass.
# The table below repeats the result when using S modafinil, and mannitol instead of anhydrous lactose; further the loading level was increased to about 30%.
# [3] = estimated; absolute bioavailability could not be determined; cited from earlier work
# [4] = cited from earlier work; remark: listed apart in the source
SMILES,AUC compared with the racemic form ([1]; after administration),variability in plasma levels compared with the racemic form ([1]; after administration),solubility in CO2 [2],elimination half life ([1]; in humans),bioavailability [3],solubility in methanol and acetone ([4]; methanol and acetone),solubility in water ([4]; water)
"NC(=O)C[S@@+]([O-])C(c1ccccc1)c1ccccc1 (single isomer, unassigned) [levo-rotatory enantiomer (R)]",larger AUC than the racemic form,less variability,,,,,
NC(=O)C[S+]([O-])C(c1ccccc1)c1ccccc1 (racemic) [Modafinil],,,acceptable solubility,about 14 hours,about 40%,partly soluble,practically insoluble
